Results on 8 molecules are retold here after ChEMBL document CHEMBL1201862, “PubChem BioAssay data set” (2004).

Molecules are shown by their SMILES.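 Step 1: Grow cells in 96-well plates. Step 2: Expose to compound for 48 hours at 5 concentrations. Step 3: Interpolate endpoints linearly; if unreached, use highest concentration. At the GI50, growth is halved.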 Calls of active or inactive are those of the source. Rule as the data show it: active = GI50 up to about 1.1 µM and inactive = higher.

Some test systems named below: A549; ACHN; CAKI-1; CCRF-CEM; COLO 205; HOP-92; IGROV-1; MCF7; MDA-N; MOLT-4; NCI-H522; OVCAR-3; OVCAR-5; OVCAR-8; PC-3; SF-539; SK-MEL-28; SK-MEL-2; SNB-19; UACC-62.
Holding throughout (assay): NCI-60 cell line screen, 48 h

In the case of `O=C1CC(=O)NC(NNS(=O)(=O)c2ccccc2)=N1`, the GI50 in the test with A549, in the test on ACHN, in the test with CAKI-1, in the test with CCRF-CEM, in the test with COLO 205 and in the test with HOP-92 was > 100 µM (inactive) throughout. The GI50 in the test with IGROV-1, with MCF7, with MDA-N, in the test with MOLT-4, in the test with NCI-H522 and in the test with OVCAR-3 was > 100 µM (inactive) each time. Besides, the GI50 in the test on OVCAR-5, in the test on OVCAR-8, in the test on PC-3, in the test with SF-539, in the test on SK-MEL-28 and with SK-MEL-2 was > 100 µM (inactive) each time. Besides, the GI50 in the test with SNB-19 and with UACC-62 was > 100 µM (inactive) in each case.
For `O=C1/C(=C/c2ccc([N+](=O)[O-])cc2)CCCc2ccccc21`, the GI50 with A549, in the test on ACHN, in the test with CAKI-1, in the test on CCRF-CEM, with COLO 205 and with HOP-92 was > 100 µM (inactive) in each case. Besides, the GI50 with IGROV-1, in the test on MCF7, with MDA-N, with MOLT-4, in the test with NCI-H522 and in the test with OVCAR-3 was > 100 µM (inactive) each time. The GI50 is > 100 µM (inactive) in the test with OVCAR-5; > 100 µM (inactive) with OVCAR-8; > 100 µM (inactive) in the test on PC-3; 76.2 µM (inactive) in the test on SF-539; > 100 µM (inactive) in the test with SK-MEL-28; > 100 µM (inactive) in the test with SK-MEL-2. For the same molecule, the results for the GI50 in the test on SNB-19 and in the test on UACC-62 were 32.1 µM (inactive) and 91 µM (inactive), respectively.
Consider `CC1=NN(C(=O)c2ccccc2O)C(=O)/C1=C/c1ccccc1O`, for which the GI50 in the test with A549 is 0.157 µM (active); in the test on ACHN, 0.0695 µM (active); in the test with CAKI-1, 1.53 µM (inactive); with CCRF-CEM it was 0.164 µM (active); in the test on COLO 205, 20.7 µM (inactive); in the test with HOP-92 it was 1.27 µM (inactive). Besides, the GI50 is 0.0577 µM (active) in the test on IGROV-1; 2.68 µM (inactive) in the test on MCF7; 0.114 µM (active) in the test with MDA-N; 0.295 µM (active) in the test with MOLT-4; 0.497 µM (active) in the test with NCI-H522; 0.215 µM (active) in the test on OVCAR-3. For the same molecule, the GI50 with OVCAR-5 was 3.74 µM (inactive); in the test with OVCAR-8, 0.557 µM (active); in the test with PC-3, 1.35 µM (inactive); in the test on SF-539 it was 0.132 µM (active); in the test with SK-MEL-28, 18.5 µM (inactive); with SK-MEL-2 it was 6.4 µM (inactive). The GI50 with SNB-19 is 0.124 µM (active); in the test on UACC-62, 0.057 µM (active).
Turning to `COC1=CC(=O)c2c(c(-c3nc(C)cs3)cn2C)C1=O`, the GI50 in the test with A549 was 3.32 µM (inactive); in the test with ACHN, 4.73 µM (inactive); in the test with CAKI-1 it was 5.97 µM (inactive); in the test on CCRF-CEM, 4.5 µM (inactive); in the test with COLO 205 it was 12.4 µM (inactive); in the test on HOP-92 it was 14.9 µM (inactive). Further, the GI50 in the test on IGROV-1 was 4.29 µM (inactive); in the test on MCF7 it was 2.62 µM (inactive); in the test on MDA-N, 0.931 µM (active); with MOLT-4, 15.2 µM (inactive); in the test with NCI-H522, 1.06 µM (active); in the test on OVCAR-3, 1.75 µM (inactive). The GI50 in the test with OVCAR-5 is 6.76 µM (inactive); in the test with OVCAR-8, 4.56 µM (inactive); in the test with PC-3 it was 5.96 µM (inactive); in the test on SF-539, 2.2 µM (inactive); in the test on SK-MEL-28, 3.72 µM (inactive); in the test with SK-MEL-2, 3.03 µM (inactive). Also, the GI50 in the test on SNB-19 was 4.23 µM (inactive); with UACC-62, 2.99 µM (inactive).
As for `COc1ccc2nc3ccc(OC)cc3c(SCCCl)c2c1`, the GI50 with A549 is 39.2 µM (inactive); in the test with ACHN it was 13.9 µM (inactive); with CAKI-1, 3.82 µM (inactive); with CCRF-CEM, 2.75 µM (inactive); in the test on COLO 205, > 39.1 µM (inactive); with HOP-92, 21.6 µM (inactive). Further, the GI50 in the test on IGROV-1 is 5.09 µM (inactive); in the test with MCF7 it was 2 µM (inactive); with MDA-N it was > 50.6 µM (inactive); in the test on MOLT-4, 2.79 µM (inactive); with NCI-H522 it was 3.03 µM (inactive); in the test with OVCAR-3 it was 18.2 µM (inactive). Further, the GI50 in the test on OVCAR-5 was 24.8 µM (inactive); in the test with OVCAR-8 it was 8.57 µM (inactive); with PC-3, 22.6 µM (inactive); with SF-539, 7.21 µM (inactive); in the test with SK-MEL-28 it was 31.7 µM (inactive); in the test with SK-MEL-2, 20.7 µM (inactive). In addition, the results for the GI50 with SNB-19 and in the test with UACC-62 were 32.4 µM (inactive) and 19.5 µM (inactive), respectively.
As for `CCOC(=O)/C=C\C(C#N)(C#N)/N=C/c1ccsc1`, the GI50 with A549 was 19.1 µM (inactive); in the test on ACHN, 2.91 µM (inactive); in the test with CAKI-1 it was 2.25 µM (inactive); in the test with CCRF-CEM it was 0.207 µM (active); in the test with COLO 205 it was 1.9 µM (inactive); with HOP-92 it was 2.05 µM (inactive). Also, the GI50 in the test with IGROV-1 was 14.5 µM (inactive); in the test on MCF7, 2.51 µM (inactive); with MDA-N, 8.91 µM (inactive); in the test on MOLT-4, 1.21 µM (inactive); with NCI-H522, 0.9 µM (active); in the test with OVCAR-3, 2.54 µM (inactive). Further, the GI50 was 18.2 µM (inactive) in the test with OVCAR-5; 3.86 µM (inactive) in the test on OVCAR-8; 8.99 µM (inactive) in the test with PC-3; 6.55 µM (inactive) in the test with SF-539; 2.38 µM (inactive) in the test on SK-MEL-28; 17.7 µM (inactive) in the test with SK-MEL-2. In addition, the GI50 was 23.1 µM (inactive) with SNB-19 and 17 µM (inactive) in the test with UACC-62.
`CC(C)OP(=O)(OC(C)C)/C(C#N)=C/c1ccco1`: the GI50 with A549, in the test on ACHN, with CAKI-1, with CCRF-CEM, in the test on COLO 205 and in the test with HOP-92 was > 100 µM (inactive) throughout. Besides, the GI50 in the test with IGROV-1, in the test on MCF7, in the test with MDA-N, in the test on MOLT-4, in the test on NCI-H522 and in the test with OVCAR-3 was > 100 µM (inactive) in each case. In addition, the GI50 in the test with OVCAR-5, with OVCAR-8, in the test on PC-3, with SF-539, with SK-MEL-28 and in the test on SK-MEL-2 was > 100 µM (inactive) throughout. Besides, the GI50 in the test on SNB-19 and with UACC-62 was > 100 µM (inactive) throughout.
Take `COc1cccc(-c2nc(O)c3ccccc3n2)c1`: the GI50 in the test on A549 was 21 µM (inactive); with ACHN it was 20.8 µM (inactive); in the test with CAKI-1, 16.4 µM (inactive); in the test with CCRF-CEM, > 10 µM (inactive); with COLO 205, 37.8 µM (inactive); with HOP-92 it was 27 µM (inactive). Besides, the GI50 in the test on IGROV-1 is 24.5 µM (inactive); with MCF7 it was 22.1 µM (inactive); with MDA-N, 17.3 µM (inactive); with MOLT-4, 86.5 µM (inactive); with NCI-H522 it was 23.2 µM (inactive); with OVCAR-3 it was 21.2 µM (inactive). The GI50 is 39.4 µM (inactive) with OVCAR-5; 28.4 µM (inactive) in the test on OVCAR-8; 20.1 µM (inactive) in the test on PC-3; 23.3 µM (inactive) with SF-539; 28.1 µM (inactive) in the test with SK-MEL-28; 39.5 µM (inactive) in the test with SK-MEL-2. The GI50 in the test with SNB-19 is 19.8 µM (inactive); in the test on UACC-62, 20.1 µM (inactive).
